Test results: patent US20180320217A1, “METHODS FOR SAMPLING AND MEASURING ORAL LAVAGE PROTEINS” (The Procter & Gamble Company, priority 2017, published 2018)
Several values for one entry are separate records, joined by “and”; a condition that tells them apart may be missing. Equal entries are not always repeated. Structures can show the parent of a compound that is named as a salt.

Key:
Malate dehydrogenase [1] = target: T1, Malate dehydrogenase (Sus scrofa, UniProt P00346); assay: Formation of formazan dyes: Malate dehydrogenase and 1-Methoxy PMS, absence of malate (TABLE 17); format: biochemical, pig heart; set-up: L-malate dehydrogenase (pig heart); purchased Sigma-Aldrich 10127248001 / 10127914001
T1 sequence (P00346 25-338): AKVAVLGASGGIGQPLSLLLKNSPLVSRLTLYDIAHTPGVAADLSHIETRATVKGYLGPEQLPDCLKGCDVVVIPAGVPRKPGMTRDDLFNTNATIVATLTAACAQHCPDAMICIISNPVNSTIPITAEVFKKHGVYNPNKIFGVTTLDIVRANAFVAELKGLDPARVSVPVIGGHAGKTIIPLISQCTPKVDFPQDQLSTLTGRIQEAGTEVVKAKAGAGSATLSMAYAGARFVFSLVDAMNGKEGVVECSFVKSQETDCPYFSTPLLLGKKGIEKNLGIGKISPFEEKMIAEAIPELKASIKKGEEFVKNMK

Malate dehydrogenase [2] = target: T1, Malate dehydrogenase; assay: Formation of formazan dyes: Malate dehydrogenase, malate and 1-Methoxy PMS (TABLE 18); format: biochemical, pig heart; set-up: L-malate dehydrogenase (pig heart); purchased Sigma-Aldrich 10127248001 / 10127914001
diaphorase [3] = assay: Formation of formazan dyes: NADH, diaphorase and malate (TABLE 8); format: biochemical, Clostridium kluyveri; conditions: NADH, diaphorase and malate
diaphorase [4] = assay: Formation of formazan dyes: only diaphorase, not malate (TABLE 13); format: biochemical, Clostridium kluyveri; conditions: mean of three experiments
[5] = tested on: Malate dehydrogenase and diaphorase; assay: Formation of formazan dyes: Malate dehydrogenase and diaphorase, absence of malate (TABLE 9); format: biochemical, pig heart
[6] = tested on: Malate dehydrogenase and diaphorase; assay: Formation of formazan dyes: Malate dehydrogenase, diaphorase and malate (TABLE 10); format: biochemical, pig heart
oral lavage [7] = assay: Formation of formazan dyes: oral lavage, malate and diaphorase (TABLE 12); format: biochemical, human; conditions: oral lavage, malate and diaphorase
diaphorase [8] = assay: Formation of formazan dyes: NADH and diaphorase, absence of malate (TABLE 7); format: biochemical, Clostridium kluyveri; conditions: NADH and diaphorase, absence of malate
diaphorase [9] = assay: Formation of formazan dyes: only diaphorase and malate (TABLE 14); format: biochemical, Clostridium kluyveri; conditions: mean of three experiments
oral lavage [10] = assay: Formation of formazan dyes: oral lavage and diaphorase, not malate (TABLE 11); format: biochemical, human
[11] = Formation of formazan dyes: NADH, malate and 1-methoxy PMS (TABLE 16); format: biochemical
[12] = Formation of formazan dyes: control buffer, malate and 1-Methoxy PMS (TABLE 22); format: biochemical
[13] = Formation of formazan dyes: control buffer and 1-Methoxy PMS, absence of malate (TABLE 21); format: biochemical

COc1cc([N+](=O)[O-])c(S(=O)(=O)[O-])cc1-n1nc(C(=O)Nc2ccccc2)n[n+]1-c1cc(S(=O)(=O)O)c([N+](=O)[O-])cc1OC [XTT, 2,3-Bis(2-methoxy-4-nitro-5-sulfophenyl)-2H-tetrazolium-5-carboxanilide inner salt]
Absorbance, formation of formazan dyes (Means) (Malate dehydrogenase [1]): 0.61 and 0.72 and 0.80 and 0.82 and 0.84 and 0.85 and 0.91 and 0.93
Absorbance, formation of formazan dyes (Means) (Malate dehydrogenase [2]): 2.09 and 3.28 and 3.71 and 3.96 and 4.00
Formation of formazan dyes, absorbance, Means 0 h (diaphorase [3]; 0 h): 1.95
Formation of formazan dyes, absorbance, Means 1 h (diaphorase [3]; 1 h): 2.20
Formation of formazan dyes, absorbance, Means 2 h (diaphorase [3]; 2 h): 2.18
Formation of formazan dyes, absorbance, Means 3 h (diaphorase [3]; 3 h): 2.17
Formation of formazan dyes, absorbance, Means 4 h (diaphorase [3]; 4 h): 2.23
Formation of formazan dyes, absorbance, Means 6 h (diaphorase [3]; 6 h): 2.28
Formation of formazan dyes, absorbance, Means 8 h (diaphorase [3]; 8 h): 2.33
Formation of formazan dyes, absorbance, Means 10 h (diaphorase [3]; 10 h): 2.41
Formation of formazan dyes, absorbance, Means 12 h (diaphorase [3]; 12 h): 2.45
Absorbance, formation of formazan dyes (Means) (diaphorase [4]; 0 h): 0.41
Absorbance, formation of formazan dyes (Means) (diaphorase [4]; 1 h): 0.49
Absorbance, formation of formazan dyes (Means) (diaphorase [4]; 2 h): 0.52
Absorbance, formation of formazan dyes (Means) (diaphorase [4]; 3 h): 0.54
Absorbance, formation of formazan dyes (Means) (diaphorase [4]; 4 h): 0.54
Absorbance, formation of formazan dyes (Means) (diaphorase [4]; 6 h): 0.60
Absorbance, formation of formazan dyes (Means) (diaphorase [4]; 8 h): 0.63
Absorbance, formation of formazan dyes (Means) (diaphorase [4]; 10 h): 0.64
Absorbance, formation of formazan dyes (Means) (diaphorase [4]; 12 h): 0.67
Formation of formazan dyes, absorbance, Means 0 h ([5]; Malate dehydrogenase and diaphorase, absence of malate, 0 h): 0.39
Formation of formazan dyes, absorbance, Means 1 h ([5]; Malate dehydrogenase and diaphorase, absence of malate, 1 h): 0.44
Formation of formazan dyes, absorbance, Means 2 h ([5]; Malate dehydrogenase and diaphorase, absence of malate, 2 h): 0.46
Formation of formazan dyes, absorbance, Means 3 h ([5]; Malate dehydrogenase and diaphorase, absence of malate, 3 h): 0.50
Formation of formazan dyes, absorbance, Means 4 h ([5]; Malate dehydrogenase and diaphorase, absence of malate, 4 h): 0.50
Formation of formazan dyes, absorbance, Means 6 h ([5]; Malate dehydrogenase and diaphorase, absence of malate, 6 h): 0.54
Formation of formazan dyes, absorbance, Means 8 h ([5]; Malate dehydrogenase and diaphorase, absence of malate, 8 h): 0.57
Formation of formazan dyes, absorbance, Means 10 h ([5]; Malate dehydrogenase and diaphorase, absence of malate, 10 h): 0.58
Formation of formazan dyes, absorbance, Means 12 h ([5]; Malate dehydrogenase and diaphorase, absence of malate, 12 h): 0.66
reduction of tetrazolium dye in the absence of substrate malate ([5]; malate dehydrogenase and diaphorase (TABLE 9)): remained largely in oxidized forms
Formation of formazan dyes, absorbance, Means 0 h ([6]; Malate dehydrogenase, diaphorase and malate, 0 h): 1.21
Formation of formazan dyes, absorbance, Means 1 h ([6]; Malate dehydrogenase, diaphorase and malate, 1 h): 1.98
Formation of formazan dyes, absorbance, Means 2 h ([6]; Malate dehydrogenase, diaphorase and malate, 2 h): 2.41
Formation of formazan dyes, absorbance, Means 3 h ([6]; Malate dehydrogenase, diaphorase and malate, 3 h): 2.71
Formation of formazan dyes, absorbance, Means 4 h ([6]; Malate dehydrogenase, diaphorase and malate, 4 h): 3.02
Formation of formazan dyes, absorbance, Means 6 h ([6]; Malate dehydrogenase, diaphorase and malate, 6 h): 3.54
Formation of formazan dyes, absorbance, Means 8 h ([6]; Malate dehydrogenase, diaphorase and malate, 8 h): 3.86
Formation of formazan dyes, absorbance, Means 10 h ([6]; Malate dehydrogenase, diaphorase and malate, 10 h): 3.90
Formation of formazan dyes, absorbance, Means 12 h ([6]; Malate dehydrogenase, diaphorase and malate, 12 h): 3.80
conversion to reduced formazan dyes ([6]; malate dehydrogenase, diaphorase and malate (TABLE 10)): converted to reduced formazan dyes in a time-dependent manner
Formation of formazan dyes, absorbance, Means 0 h (oral lavage [7]; 0 h): 0.75
Formation of formazan dyes, absorbance, Means 1 h (oral lavage [7]; 1 h): 0.88
Formation of formazan dyes, absorbance, Means 2 h (oral lavage [7]; 2 h): 0.94
Formation of formazan dyes, absorbance, Means 3 h (oral lavage [7]; 3 h): 0.98
Formation of formazan dyes, absorbance, Means 4 h (oral lavage [7]; 4 h): 1.19
Formation of formazan dyes, absorbance, Means 6 h (oral lavage [7]; 6 h): 1.41
Formation of formazan dyes, absorbance, Means 8 h (oral lavage [7]; 8 h): 1.73
Formation of formazan dyes, absorbance, Means 10 h (oral lavage [7]; 10 h): 1.90
Formation of formazan dyes, absorbance, Means 12 h (oral lavage [7]; 12 h): 2.08
Formation of formazan dyes, absorbance, Means 0 h (diaphorase [8]; 0 h): 2.22
Formation of formazan dyes, absorbance, Means 1 h (diaphorase [8]; 1 h): 2.35
Formation of formazan dyes, absorbance, Means 2 h (diaphorase [8]; 2 h): 2.36
Formation of formazan dyes, absorbance, Means 3 h (diaphorase [8]; 3 h): 2.32
Formation of formazan dyes, absorbance, Means 4 h (diaphorase [8]; 4 h): 2.40
Formation of formazan dyes, absorbance, Means 6 h (diaphorase [8]; 6 h): 2.39
Formation of formazan dyes, absorbance, Means 8 h (diaphorase [8]; 8 h): 2.45
Formation of formazan dyes, absorbance, Means 10 h (diaphorase [8]; 10 h): 2.45
Formation of formazan dyes, absorbance, Means 12 h (diaphorase [8]; 12 h): 2.46
Absorbance, formation of formazan dyes (Means) (diaphorase [9]; 0 h): 0.39
Absorbance, formation of formazan dyes (Means) (diaphorase [9]; 1 h): 0.45
Absorbance, formation of formazan dyes (Means) (diaphorase [9]; 2 h): 0.48
Absorbance, formation of formazan dyes (Means) (diaphorase [9]; 3 h): 0.53
Absorbance, formation of formazan dyes (Means) (diaphorase [9]; 4 h): 0.52
Absorbance, formation of formazan dyes (Means) (diaphorase [9]; 6 h): 0.57
Absorbance, formation of formazan dyes (Means) (diaphorase [9]; 8 h): 0.63
Absorbance, formation of formazan dyes (Means) (diaphorase [9]; 10 h): 0.69
Absorbance, formation of formazan dyes (Means) (diaphorase [9]; 12 h): 0.73
Formation of formazan dyes, absorbance, Means 0 h (oral lavage [10]; oral lavage and diaphorase, not malate, 0 h): 0.80
Formation of formazan dyes, absorbance, Means 1 h (oral lavage [10]; oral lavage and diaphorase, not malate, 1 h): 0.98
Formation of formazan dyes, absorbance, Means 2 h (oral lavage [10]; oral lavage and diaphorase, not malate, 2 h): 1.04
Formation of formazan dyes, absorbance, Means 3 h (oral lavage [10]; oral lavage and diaphorase, not malate, 3 h): 0.99
Formation of formazan dyes, absorbance, Means 4 h (oral lavage [10]; oral lavage and diaphorase, not malate, 4 h): 1.18
Formation of formazan dyes, absorbance, Means 6 h (oral lavage [10]; oral lavage and diaphorase, not malate, 6 h): 1.24
Formation of formazan dyes, absorbance, Means 8 h (oral lavage [10]; oral lavage and diaphorase, not malate, 8 h): 1.26
Formation of formazan dyes, absorbance, Means 10 h (oral lavage [10]; oral lavage and diaphorase, not malate, 10 h): 1.27
Formation of formazan dyes, absorbance, Means 12 h (oral lavage [10]; oral lavage and diaphorase, not malate, 12 h): 1.28
reduction to formazan dyes by pooled oral lavage (oral lavage [10]; pooled oral lavage of high bleeder group, diaphorase, no added malate (TABLE 11)): changed to formazan dyes in a significant amount
Absorbance, formation of formazan dyes (Means) [11]: 1.51 and 1.56 and 1.61 and 1.67 and 1.80 and 1.94 and 2.02 and 2.15
Means absorbance 0 h [12]: 0.42
Means absorbance 1 h [12]: 0.48
Means absorbance 2 h [12]: 0.53
Means absorbance 3 h [12]: 0.59
Means absorbance 4 h [12]: 0.60
Means absorbance 6 h [12]: 0.77
Means absorbance 8 h [12]: 0.91
Means absorbance 10 h [12]: 1.03
Means absorbance 12 h [12]: 1.17
conversion into colored formazan dyes in assay buffer containing 1-methoxy PMS [13]: slowly catalyze the conversion of tetrazolium salts into colored formazan dyes
